Source: ChEMBL document CHEMBL1157999, “A new epidioxy sterol as an antifouling substance from a palauan marine sponge, lendenfeldia chondrodes” (1999)

Columns and labels:
Format in all cases: functional, Mytilus edulis/galloprovincialis MCLGV-2007
Mytilus edulis [1] = experiment: Antifouling activity against blue mussel assessed as responding mussel at 1 ppm by foot stimulant method
Mytilus edulis [2] = experiment: Antifouling activity against blue mussel assessed as responding mussel at 100 ppm by foot stimulant method
Mytilus edulis [3] = experiment: Antifouling activity against blue mussel assessed as responding mussel at 10 ppm by foot stimulant method

Row | Structure (SMILES) | Activity (Mytilus edulis [1]) [%] | Activity (Mytilus edulis [2]) [%] | Activity (Mytilus edulis [3]) [%]
1 | CC(=O)OC[C@]12CCCC(C)(C)[C@@H]1CC[C@]1(C)[C@@H]2C[C@H]2OC(=O)[C@H]3[C@H](C(C)=O)[C@@H](O)C[C@@H]1[C@]23C | 90 | 100 | 100
2 | C=CC(CC[C@@H](C)[C@H]1CC[C@@H]2[C@]1(C)CC[C@H]1[C@]23C=C[C@]2(C[C@@H](O)CC[C@]12C)OO3)(OO)C(C)C (mixture of isomers) | 0 | 95 | 20
3 | CC(=O)O[C@H]1C[C@H]2[C@@](C)(CC[C@H]3C(C)(C)CCC[C@@]32C=O)[C@@H]2CC=C(C(C)=O)[C@H](C=O)[C@@]12C | 10 | 75 | 55
4 | CC(=O)C1=CC[C@H]2[C@]3(C)CC[C@H]4C(C)(C)CCC[C@]4(C(=O)O)[C@H]3CC(=O)[C@]2(C)[C@H]1C=O | 95 | 100 | 100
5 | C=C(CC[C@@H](C)[C@H]1CC[C@@H]2[C@]1(C)CC=C1[C@]23C=C[C@]2(C[C@@H](O)CC[C@]12C)OO3)C(C)C | 0 | 0 | 0
6 | CC(C)CCC[C@@H](C)[C@H]1CC[C@@H]2[C@]1(C)CC[C@H]1[C@]23C=C[C@]2(C[C@@H](O)CC[C@]12C)OO3 | 0 | 0 | 0
